Measured values reported in patent US10800794B2, “Heterocycle-substituted bicyclic azole pesticides” (priority 2015, dated 2020).

System: sweetpotato whitefly (Bemisia tabaci (Gennadius))
Test: Test D: control of sweetpotato whitefly through contact and/or systemic means, sprayed cotton plant infested with eggs
Format: in vivo
Details: sprayed at 50 ppm, assessed after 13 days at 28° C.
Method: Test compounds were formulated using a solution containing 10% acetone, 90% water and 300 ppm X-77® Spreader Lo-Foam Formula non-ionic surfactant containing alkylarylpolyoxyethylene, free fatty acids, glycols and isopropanol (Loveland Industries, Inc. Greeley, Colo., USA). The formulated compounds were applied in 1 mL of liquid through a SUJ2 atomizer nozzle with ⅛ JJ custom body (Spraying Systems Co. Wheaton, Ill., USA) positioned 1.27 cm (0.5 inches) above the top of each test unit. Test compounds were sprayed at the rates indicated, and each test was replicated three times.
For evaluating control of the sweetpotato whitefly (Bemisia tabaci (Gennadius)) through contact and/or systemic means, the test unit consisted of a small open container with a 12-14-day-old cotton plant inside. Prior to the spray application, both cotyledons were removed from the plant, leaving one true leaf for the assay. Adult whiteflies were allowed to lay eggs on the plant and then were removed from the test unit. Cotton plants infested with at least 15 eggs were submitted to the test for spraying.
Test compounds were formulated and sprayed at 250 and/or 50 ppm. After spraying, the test units were allowed to dry for 1 hour. […] Each test unit was then visually assessed for insect mortality.

CN(C)C(=O)C(C)(C)NC(=O)c1csc2nc(-c3cncc(F)c3)cn12 [Compound 14]
mortality: at least 80%
